B1: Oncolysin 2: second generation molecule: oncolysin N with a synthetic collagen binding domain at the C terminus (protein)
chain: MRIAVICFCLLGITCAGGGPGIPVKQADSGSSEEKGGGPGTPVVPTVDTYDGRGDSVVYGLRSKPAGAAGGPAGPAGPAGPAGPAGP
B2: … VYGLRKKKAARGRRAARGRR (protein)
chain: HHGHHGGHHHPGIPVKQADSGSSEEKGGGPPTPVVPTVDTYDGRGDSVVYGLRKKKAARGRRAARGRR
modifications: His tag
B3: MRIAVICFCLLGITCAGGGPGIPVKQADSGSSEEKGGGPGTPVVPTVDTY DGRGDSVVYGLRSKKAARGRRAARGRR (protein)
chain: MRIAVICFCLLGITCAGGGPGIPVKQADSGSSEEKGGGPGTPVVPTVDTYDGRGDSVVYGLRSKKAARGRRAARGRR
B4: MRIAVICFCLLGITCAGGGPGIPVKQADSGSSEEKGGGPGTPVVPTVDTY DGRGDSVVYGLRKKKAARGRRAARGRR (protein)
chain: MRIAVICFCLLGITCAGGGPGIPVKQADSGSSEEKGGGPGTPVVPTVDTYDGRGDSVVYGLRKKKAARGRRAARGRR

The test system of one assay is metastatic tumor cell line. The assay is described as follows: apoptosis assay, flow cytometric analysis of propidium iodide uptake. The class given is cell-based. The conditions noted are these: apoptosis assays. An excerpt:
A first generation osteopontin-derived biosynthetic molecule, oncolysin N, was engineered based on the isolation of a domain of osteopontin sufficient to impart pro-apoptotic activity when isolated away from the naturally-occurring osteopontin polypeptide. In particular, the oncolysin N molecule was designed to include the following domains: (1) a signal sequence (i.e., signal peptide), derived in this instance from the native osteopontin amino acid sequence (i.e., amino acids 1-16 of the human osteopontin-B amino acid sequence set forth as SEQ ID NO:1); (2) a golgi processing domain derived from the native osteopontin amino acid sequence (i.e., amino acids 17-30 of the human osteopontin-B amino acid sequence set forth as SEQ ID NO:1); (3) a pro-apoptotic domain comprising contiguous amino acid residues of human osteopontin-B sufficient to induce apoptosis (i.e., amino acids 147-170 of the human osteopontin-B amino acid sequence set forth as SEQ ID NO:1) yet lacking additional osteopontin-B sequences which are unnecessary for apoptotic activity, or alternatively decrease pro-apoptotic activity, of the biosynthetic molecule; and (4) two linker domains, a first linker domain operably linking the signal sequence to the golgi processing domain, and a second linker domain operably linking the golgi processing domain to the pro-apoptotic domain. The signal sequence and golgi processing domain optimize synthesis, processing through the golgi and secretion of the biosynthetic oncolysin N molecule. […]
Cells are grown in culture and treated with varying doses of exogenous oncolysin N. Apoptosis is determined by flow cytometric analysis according to the uptake of propidium iodide. […] DNA cleavage in apoptotic cells is assessed by flow cytometric analysis, as cells containing hypodiploid nuclei bind less propidium iodide than intact nuclei.
Cellular apoptosis can also be determined using standard criteria in the art such as nuclear condensation, chromatin fragmentation, and viability as assessed by Trypan blue exclusion. […]
In the case of “osteopontin-B: native human osteopontin-B, a preferred splice variant of the human osteopontin gene [reference compound]”, the “apoptotic activity (induction of apoptosis)” value is given as “no apoptotic activity”.

B1: the “apoptotic activity (induction of apoptosis)” value is on record as “more effective at promoting apoptosis than oncolysin N”.

The next assay deals with microtubules. Briefly: effect on microtubules in treated cells. It is filed as cell-based.
Settings: not given
An excerpt: Based on a detailed understanding of the functional domains of osteopontin and an understanding of the role this multifunctional cytokine plays in the regulation of cellular apoptosis, biosynthetic molecules which mimic distinct functions of osteopontin are provided for use in a variety of therapeutic applications, in particular, in the treatment of cancer and inflammatory conditions such as arthritis. In particular, the biosynthetic molecules are useful in the elimination of abnormal or unwanted cells that express at least an integrin receptor and/or that co-express both an integrin and a CD44 receptor. Many of the biosynthetic molecules/peptides disclosed herein are believed to uncouple integrin signaling form CD 44 signaling, resulting in the stabilization of microtubules by down stream activation of rhoB. […] Cells treated with these molecules organize the arrays of disorganized microtubules into parallel bundles and freeze the normal, microtubular, mitotic bundle. As a result, the treated cells form several more asters at various locations with the cell, serving to further strengthen the cell's structure and preventing cell separation.
Many of the biosynthetic molecules/peptides disclosed herein are believed to uncouple integrin signaling form CD 44 signaling. […] Cells treated with these molecules organize the arrays of disorganized into parallel bundles and freeze the normal, microtubular, mitotic bundle. As a result, the treated cells form several more asters at various locations with the cell, serving to further strengthen the cell's structure and preventing cell separation.
Consider “PYAGRGDSVVYGLKKKNNQKAEPLIGRKKTR [SEQ ID NO:16]”, for which the capping of microtubules result is “inhibit the capping of microtubules” and the polymerization of microtubules result was “induces their unidirectional polymerization”.

In the case of “PGIPVKQADSGSSEEKGGGPGTPVVPTVDTYDGRGDSVVYGLRKKKAAR GRRAARGRR (PGIPVKQADSGSSEEKGGGPGTPVVPTVDTYDGRGDSVVYGLRKKKAARGRRAARGRR) [SEQ ID NO:14]”, the capping of microtubules entry was “inhibit the capping of microtubules” and the polymerization of microtubules entry is recorded as “induces their unidirectional polymerization”.

Take “PGIPVKQADSGSSEEKGGGPGTPVVPTVDTYDGRGDSVVYGLRKKKAARGRRAARGRR (PGIPVKQADSGSSEEKGGGPGTPVVPTVDTYDGRGDSVVYGLRKKKAARGRRAARGRR) [SEQ ID NO:15]”: the capping of microtubules result is on record as “inhibit the capping of microtubules” and the polymerization of microtubules result is reported as “induces their unidirectional polymerization”.

For the molecule “GIPVKQADSGSSEEKGGGPPTPVVPTVDTYDGRGDSVVYGLRKKKAARG RRAARGRR (GIPVKQADSGSSEEKGGGPPTPVVPTVDTYDGRGDSVVYGLRKKKAARGRRAARGRR) [SEQ ID NO:10]”, the capping of microtubules result was “inhibit the capping of microtubules” and the polymerization of microtubules result is given as “induces their unidirectional polymerization”.

With B2, the capping of microtubules entry is “inhibit the capping of microtubules” and the polymerization of microtubules result is “induces their unidirectional polymerization”.

For B3, the capping of microtubules result is listed as “inhibit the capping of microtubules” and the polymerization of microtubules entry was “induces their unidirectional polymerization”.

With B4, the capping of microtubules result was “inhibit the capping of microtubules” and the polymerization of microtubules result is on record as “induces their unidirectional polymerization”.

For the origin of these results see patent US20050048614A1, “Biosynthetic oncolytic molecules and uses therefor” (Children's Medical Center Corporation, priority 2000, published 2005).
